Data: patent US20170281566A1, “COMBINATIONS OF LSD1 INHIBITORS FOR THE TREATMENT OF HEMATOLOGICAL MALIGNANCIES” (HOFFMANN-LA ROCHE INC., priority 2016, published 2017)

Legend:
Type in all cases: cell-based
[1] = test system: MOLT4 cells; assay: Viability assay (10 days), Alamar Blue, single agent
Procedure: MOLT4 cells were maintained in RPMI 10% FBS medium at 37° C. in a humidified incubator with controlled 5% CO2 atmosphere. Cell freezing and thawing was performed following recommendation from ATCC. Genetic profiling of the cell lines used is available in table 4.
2.1.2 Viability Assays (10 Days)
Three wells were reserved for each experimental condition; medium-only and vehicle-treated controls were also added for background correction and normalization respectively. After seeding, 50 μL of medium containing 8 1:3 serial dilution of ORY-1001 were added to the cells (range 0.015-100 nM). Cells were then incubated for 6 days at 37° C. in a controlled 5% CO2 atmosphere. On the sixth day, 1004, of medium with serial dilutions of ORY-1001 (as described previously) or vehicle were added to the cells. Medium without compound (100μ) was added to background control.
After 4 additional days of incubation, cell viability was evaluated using the Alamar Blue® staining as detailed in the section 1.1.2.

[2] = test system: MOLM-13 cells; assay: Viability assay (96 hours), Alamar Blue, single agent
Procedure: (§1) AML cell lines were maintained in RPMI 10% FBS medium at 37° C. in a humidified incubator with controlled 5% CO2 atmosphere. Cell freezing and thawing was performed following recommendation from ATCC. Genetic profiling of the cell lines used is available in table 2. […] Three wells were reserved for each experimental condition; medium-only and vehicle-treated controls were also added for background correction and normalization respectively. […] Alamar Blue® is a cell viability indicator that uses the natural reducing power of living cells to convert resazurin to the fluorescent molecule, resorufin^43.

[3] = test system: THP-1 cells; assay: as above
Procedure: as §1

[4] = test system: MV(4;11) cells; assay: as above
Procedure: as §1

[5] = test system: OCI-AML3 cells; assay: as above
Procedure: as §1

[6] = test system: HL-60 cells; assay: as above
Procedure: as §1

[7] = test system: KASUMI-1 cells; assay: as above
Procedure: as §1

[8] = test system: OCI-AML2 cells; assay: as above; conditions: Homo sapiens, OCI-AML2, 96 h, read-out: EC50 (viability)
Procedure: as §1

Row | EC50 (viability) ([1]; MOLT4, 10 days of treatment, single agent) | EC50 (viability) ([2]; MOLM-13, 96 hours, single agent) | EC50 (viability) ([3]; THP-1, 96 hours, single agent) | EC50 (viability) ([5]; OCI-AML3, 96 hours, single agent) | EC50 (viability) ([6]; HL-60, 96 hours, single agent) | Compound | Effect on viability of MOLT-4 cells ([1]; shorter treatment (96 hours), data not shown) | EC50 (viability) ([4]; MV(4;11), 96 hours, single agent) | EC50 (viability) ([7]; KASUMI-1, 96 hours, single agent) | EC50 [8] [µM] | EC50 ([2]; Homo sapiens, MOLM-13, 96 h, read-out: EC50 (viability)) [µM] | EC50 ([3]; Homo sapiens, THP-1, 96 h, read-out: EC50 (viability)) [µM] | EC50 ([4]; Homo sapiens, MV4-11, 96 h, read-out: EC50 (viability)) [µM] | EC50 ([5]; Homo sapiens, OCI-AML-3, 96 h, read-out: EC50 (viability)) [µM] | EC50 ([6]; Homo sapiens, HL-60, 96 h, read-out: EC50 (viability)) [µM] | EC50 ([7]; Homo sapiens, Kasumi 1, 96 h, read-out: EC50 (viability)) [µM]
1 | sub-nanomolar | sub-nanomolar | sub-nanomolar | sub-nanomolar | sub-nanomolar | N[C@H]1CC[C@H](N[C@@H]2C[C@H]2c2ccccc2)CC1 [ORY-1001, (trans)-N1-((1R,2S)-2-phenylcyclopropyl)cyclohexane-1,4-diamine] | not affecting the viability | sub-nanomolar | sub-nanomolar | – | – | – | – | – | – | –
2 | – | – | – | – | – | O=C(CCCCCCNC(=O)c1cnc(N(c2ccccc2)c2ccccc2)nc1)NO [Rocilinostat, Ricolinostat, reference compound] | – | – | – | 0.5 to 3 | 0.5 to 3 | 0.5 to 3 | 0.5 to 3 | 0.5 to 3 | 0.5 to 3 | 0.5 to 3
